Tests used:
tumor xenograft models = assay: Antitumor activity in tumor xenograft models in athymic mice; type: in vivo; conditions: administered orally, all models tested
Experimental: (§1) Inhibition was observed up to 24 hours in certain models.

[1] = system: FGFR downstream-signaling proteins AKT and ERK; assay: Tyrosine phosphorylation of FGFR downstream-signaling proteins in xenograft tumors; type: in vivo, mice; conditions: following a single oral dose
Experimental: as §1

breast cancer cells = assay: Model of disseminated disease: liver colonization from a subcutaneous xenograft primary; type: in vivo; conditions: mice; subcutaneous (SC) xenograft primary; oral treatment
Experimental: as §1

[2] = Phase 2 trial of dovitinib: adverse events; type: in vivo, human; conditions: as of January 2011
Experimental: Patient selection was performed according to FISH/CISH for FGFR1 (cut-off≧6 gene copies). […] The primary endpoint was RECIST best overall response rate in pts with measurable disease per external radiology review.
Inclusion Criteria: • 1. Patients have histological confirmation of breast carcinoma with a clinical diagnosis of IBC based on presence of inflammatory changes in the involved breast, including diffuse erythema and edema (peau d orange), with or without an underlying palpable mass involving the majority of the skin of the breast. Pathological evidence of dermal lymphatic invasion should be noted but is not required for diagnosis. • 2. Patients have stage IV disease with local or distant relapse • 3. Patients have negative HER2 expression by IHC (defined as 0 or 1+), or FISH (fluorescence in situ hybridization). If HER2 is 2+, negative HER2 expression must be confirmed by FISH. • 4. Patients are able to swallow and retain oral medication. • 5. Patients have ECOG performance status 0-2. • 6. Patients have received up to 3 standard chemotherapies for metastatic disease and have relapsed. • 7. Patients have ability and willingness to sign written informed consent. • 8. Patients are 18 years of age or older. • 9. Female patients of childbearing potential (A person not free from menses>2 years or not surgically sterilized) must be willing to use two adequate barrier methods of contraception to prevent pregnancy or agree to abstain from heterosexual activity throughout the study. • 10. Female patients of childbearing potential must have negative serum pregnancy test. • 11. If Patients have been treated with anti-VEGF agents, such as Bevacizumab, last dose must be >4 weeks. • 12. Patients have biopsy tissue of the metastatic disease (including chest wall or regional nodes) available (paraffin blocks or up to 20 unstained slides), if no biopsy tissue available, a biopsy (or thoracentesis if patient has pleural effusion only) of the metastatic disease will be performed to confirm the diagnoses.
Exclusion Criteria: • 1. Patients are receiving concurrent anti-cancer therapy (chemotherapy, immunotherapy, radiation therapy and biological therapy) while taking study medication. • 2. Abnormal liver functions consisting of any of the following: a) Serum bilirubin>/=1.5×ULN, b) AST and ALT>/=2.5×ULN, (for patients with known liver metastasis, AST and ALT</=5×ULN is allowed), ANC<1.5. • 3. Patients have an active infection and require IV or oral antibiotics. • 4. Impaired cardiac function or clinically significant cardiac diseases, including any of the following: a) History or presence of serious uncontrolled ventricular arrhythmias or presence of atrial fibrillation; b) Clinically significant resting bradycardia (<50 beats per minute); c) LVEF<45% assessed by 2-D echocardiogram (ECHO) or Multiple gated acquisition scanning (MUGA); d) Any of the following within 6 months prior to study entry: myocardial infarction (MI), severe/unstable angina, Coronary Artery Bypass Graft (CABG), Congestive Heart Failure (CHF), Cerebrovascular Accident (CVA), Transient Ischemic Attack (TIA), Pulmonary Embolism (PE); e) Uncontrolled hypertension defined by an SBP>150 and/or a DBP>100 mm Hg with or without anti-hypertensive medication. • 5. History of gastrointestinal disorders (medical disorders or extensive surgery) which may interfere with the absorption of the study drug. • 6. Patients have a concurrent disease or condition that would make them inappropriate for study participation, or any serious medical disorder that would interfere with patients' safety. • 7. Patients with only locally or regionally confined disease without evidence of metastatic disease.

CN1CCN(c2ccc3nc(-c4c(N)c5c(F)cccc5[nH]c4=O)[nH]c3c2)CC1 [dovitinib, 4-amino-5-fluoro-3-[6-(4-methylpiperazin-1-yl)-1H-benzimidazol-2-yl]-1H-quinolin-2-one]
antitumor activity in tumor xenograft models (tumor xenograft models): anti-tumor responses, ranging from growth inhibition and stasis to regression | duration of inhibition of AKT and ERK phosphorylation ([1]; certain models): up to 24 hours | tyrosine phosphorylation of AKT and ERK ([1]; xenograft tumors): inhibited | colonization of breast cancer cells in the livers (breast cancer cells): significantly reduced | adverse event: asthenia, Group 3 ([2]; Group 3): 17% | adverse event: diarrhea, Group 3 ([2]; Group 3): 6% | adverse event: nausea, Group 3 ([2]; Group 3): 5% | adverse event: vomiting ([2]; all grades, 77 patients with data, 500 mg once daily, 5-day on/2-day off): 75% | adverse event: asthenia ([2]; all grades): 61% | adverse event: diarrhea ([2]; all grades): 72% | adverse event: nausea ([2]; all grades): 62% | adverse event: vomiting, grade 3 [Group 3] ([2]; grade 3): 6%

From patent US20130345234A1, “FGFR AND LIGANDS THEREOF AS BIOMARKERS FOR BREAST CANCER IN HR POSITIVE SUBJECTS” (priority 2011, published 2013)
